According to ChEMBL document CHEMBL1142021, “Aglycon specificity profiling of alpha-glucosidases using synthetic probes” (Bioorg Med Chem Lett, 2005):

Biological target: T1, Beta-mannosidase (Homo sapiens) (UniProt O00462)
T1 sequence (whole entry): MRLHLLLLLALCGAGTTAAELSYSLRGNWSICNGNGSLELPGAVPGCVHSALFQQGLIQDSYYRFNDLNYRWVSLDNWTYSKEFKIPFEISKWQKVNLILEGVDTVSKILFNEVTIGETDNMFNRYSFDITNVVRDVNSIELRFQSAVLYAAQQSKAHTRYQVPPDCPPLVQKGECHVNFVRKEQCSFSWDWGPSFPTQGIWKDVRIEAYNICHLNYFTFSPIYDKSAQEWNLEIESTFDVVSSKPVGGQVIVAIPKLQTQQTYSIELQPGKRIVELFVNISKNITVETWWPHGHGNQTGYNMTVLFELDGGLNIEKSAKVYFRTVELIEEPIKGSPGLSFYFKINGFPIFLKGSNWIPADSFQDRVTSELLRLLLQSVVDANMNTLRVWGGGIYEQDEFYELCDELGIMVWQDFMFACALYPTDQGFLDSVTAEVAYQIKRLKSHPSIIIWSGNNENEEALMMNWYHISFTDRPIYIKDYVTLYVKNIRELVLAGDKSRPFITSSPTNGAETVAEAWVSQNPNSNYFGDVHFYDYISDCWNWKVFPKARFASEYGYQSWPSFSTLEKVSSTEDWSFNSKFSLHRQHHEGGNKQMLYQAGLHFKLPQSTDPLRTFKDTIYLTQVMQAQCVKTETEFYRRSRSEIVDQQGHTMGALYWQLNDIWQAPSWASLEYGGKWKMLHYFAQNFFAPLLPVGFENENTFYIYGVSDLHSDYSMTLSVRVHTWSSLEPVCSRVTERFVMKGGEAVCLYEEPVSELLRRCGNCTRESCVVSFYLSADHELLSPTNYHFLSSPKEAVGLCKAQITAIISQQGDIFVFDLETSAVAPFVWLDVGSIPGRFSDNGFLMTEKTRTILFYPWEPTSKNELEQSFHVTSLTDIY
Assay: Inhibition of beta-Mannosidase at 5 umol/mL
Conditions: not given

Row | inhibition [%] | SMILES
1 | < 1 | CC(C)(C)C(=O)NCC1OC(CO)C(O)C(O)C1O (configuration not stated)
2 | < 1 | CC(=O)NCC1OC(CO)C(O)C(O)C1O (configuration not stated)
3 | < 1 | O=C(CO)NCC1OC(CO)C(O)C(O)C1O (configuration not stated)
4 | < 1 | O=C(CCO)NCC1OC(CO)C(O)C(O)C1O (configuration not stated)
5 | < 1 | O=C(CCCCCO)NCC1OC(CO)C(O)C(O)C1O (configuration not stated)
6 | < 1 | O=C(CCCCO)NCC1OC(CO)C(O)C(O)C1O (configuration not stated)
7 | < 1 | O=C(CCCO)NCC1OC(CO)C(O)C(O)C1O (configuration not stated)

Biological target: Alpha-glucosidase (Beta vulgaris) (UniProt O04931)
Assay: Inhibition of Sugar beet glucosidase (of family 31 alpha-glucosidase) at 1 umol/mL
Conditions: not given

Sequence of Alpha-glucosidase (Beta vulgaris) (O04931 whole entry): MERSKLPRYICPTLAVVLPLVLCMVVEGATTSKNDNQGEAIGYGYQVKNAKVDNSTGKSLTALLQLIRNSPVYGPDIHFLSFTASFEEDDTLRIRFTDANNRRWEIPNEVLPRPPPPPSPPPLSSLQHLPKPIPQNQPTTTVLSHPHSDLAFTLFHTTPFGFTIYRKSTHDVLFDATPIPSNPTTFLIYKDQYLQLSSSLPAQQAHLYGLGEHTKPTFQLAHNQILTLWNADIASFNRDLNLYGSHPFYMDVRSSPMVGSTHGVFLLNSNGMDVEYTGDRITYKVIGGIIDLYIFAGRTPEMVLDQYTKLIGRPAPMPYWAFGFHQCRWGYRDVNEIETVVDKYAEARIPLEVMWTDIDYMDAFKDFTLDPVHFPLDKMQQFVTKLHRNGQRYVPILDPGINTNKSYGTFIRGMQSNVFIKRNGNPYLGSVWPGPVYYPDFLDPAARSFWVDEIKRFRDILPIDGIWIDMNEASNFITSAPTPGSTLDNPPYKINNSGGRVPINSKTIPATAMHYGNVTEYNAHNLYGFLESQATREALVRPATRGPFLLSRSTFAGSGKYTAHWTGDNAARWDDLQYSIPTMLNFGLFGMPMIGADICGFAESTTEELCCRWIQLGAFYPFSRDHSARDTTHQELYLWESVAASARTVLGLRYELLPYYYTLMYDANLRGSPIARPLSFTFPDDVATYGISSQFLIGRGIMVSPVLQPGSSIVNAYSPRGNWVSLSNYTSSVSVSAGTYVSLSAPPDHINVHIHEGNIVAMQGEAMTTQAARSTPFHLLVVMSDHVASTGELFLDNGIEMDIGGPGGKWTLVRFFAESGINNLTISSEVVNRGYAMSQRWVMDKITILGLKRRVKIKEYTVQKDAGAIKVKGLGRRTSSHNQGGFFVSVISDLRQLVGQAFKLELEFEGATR

Row | inhibition [%] | SMILES
8 | 9.8 | O=C(NCC1OC(CO)C(O)C(O)C1O)c1ccccc1 (configuration not stated)

Same assay, conditions: Beta vulgaris subsp. vulgaris

Row | inhibition [%] | SMILES
9 | 3.2 | CC(C)(C)C(=O)NCC1OC(CO)C(O)C(O)C1O (configuration not stated)
10 | 8.8 | CC(=O)NCC1OC(CO)C(O)C(O)C1O (configuration not stated)
11 | 6.9 | O=C(CO)NCC1OC(CO)C(O)C(O)C1O (configuration not stated)
12 | 1.7 | O=C(CCO)NCC1OC(CO)C(O)C(O)C1O (configuration not stated)
13 | 11.9 | O=C(CCCCCO)NCC1OC(CO)C(O)C(O)C1O (configuration not stated)
14 | 3.1 | O=C(CCCCO)NCC1OC(CO)C(O)C(O)C1O (configuration not stated)
15 | 3.6 | O=C(CCCO)NCC1OC(CO)C(O)C(O)C1O (configuration not stated)

Biological target: T2, Mannosyl-oligosaccharide glucosidase (Homo sapiens) (UniProt Q13724)
T2 sequence (whole entry): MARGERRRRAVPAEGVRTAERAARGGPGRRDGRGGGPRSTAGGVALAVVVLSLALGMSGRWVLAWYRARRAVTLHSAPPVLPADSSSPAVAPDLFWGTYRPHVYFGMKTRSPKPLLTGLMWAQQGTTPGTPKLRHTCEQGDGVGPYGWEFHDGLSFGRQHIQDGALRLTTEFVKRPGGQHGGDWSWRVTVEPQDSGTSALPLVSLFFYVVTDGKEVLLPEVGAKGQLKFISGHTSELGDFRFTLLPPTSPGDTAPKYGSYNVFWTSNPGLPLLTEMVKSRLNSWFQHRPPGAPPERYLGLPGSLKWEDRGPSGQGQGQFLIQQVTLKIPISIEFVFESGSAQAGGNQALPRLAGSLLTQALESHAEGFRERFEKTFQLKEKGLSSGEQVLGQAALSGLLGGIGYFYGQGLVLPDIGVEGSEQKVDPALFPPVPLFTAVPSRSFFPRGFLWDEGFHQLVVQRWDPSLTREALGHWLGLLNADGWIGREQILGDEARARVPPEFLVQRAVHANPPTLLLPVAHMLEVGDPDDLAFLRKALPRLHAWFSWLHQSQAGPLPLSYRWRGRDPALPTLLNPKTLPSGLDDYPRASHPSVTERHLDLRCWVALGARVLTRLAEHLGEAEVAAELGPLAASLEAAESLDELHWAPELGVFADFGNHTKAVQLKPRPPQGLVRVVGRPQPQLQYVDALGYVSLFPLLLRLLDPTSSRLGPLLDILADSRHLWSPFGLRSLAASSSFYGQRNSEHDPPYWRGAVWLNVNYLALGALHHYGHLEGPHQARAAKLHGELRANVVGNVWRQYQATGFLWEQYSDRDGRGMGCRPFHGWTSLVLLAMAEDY
Assay: Inhibition of Glucosidase 1 (of Endoplasmic reticulum processing alpha-glucosidase) at 2 umol/mL
Conditions: not given

Row | inhibition [%] | SMILES
16 | < 1 | CC(C)(C)C(=O)NCC1OC(CO)C(O)C(O)C1O (configuration not stated)
17 | < 1 | CC(=O)NCC1OC(CO)C(O)C(O)C1O (configuration not stated)
18 | < 1 | O=C(CO)NCC1OC(CO)C(O)C(O)C1O (configuration not stated)
19 | < 1 | O=C(CCO)NCC1OC(CO)C(O)C(O)C1O (configuration not stated)
20 | < 1 | O=C(CCCCCO)NCC1OC(CO)C(O)C(O)C1O (configuration not stated)
21 | < 1 | O=C(CCCCO)NCC1OC(CO)C(O)C(O)C1O (configuration not stated)
22 | < 1 | O=C(CCCO)NCC1OC(CO)C(O)C(O)C1O (configuration not stated)

Biological target: T3, Alpha-glucosidase (Apis mellifera) (UniProt Q17058)
T3 sequence (whole entry): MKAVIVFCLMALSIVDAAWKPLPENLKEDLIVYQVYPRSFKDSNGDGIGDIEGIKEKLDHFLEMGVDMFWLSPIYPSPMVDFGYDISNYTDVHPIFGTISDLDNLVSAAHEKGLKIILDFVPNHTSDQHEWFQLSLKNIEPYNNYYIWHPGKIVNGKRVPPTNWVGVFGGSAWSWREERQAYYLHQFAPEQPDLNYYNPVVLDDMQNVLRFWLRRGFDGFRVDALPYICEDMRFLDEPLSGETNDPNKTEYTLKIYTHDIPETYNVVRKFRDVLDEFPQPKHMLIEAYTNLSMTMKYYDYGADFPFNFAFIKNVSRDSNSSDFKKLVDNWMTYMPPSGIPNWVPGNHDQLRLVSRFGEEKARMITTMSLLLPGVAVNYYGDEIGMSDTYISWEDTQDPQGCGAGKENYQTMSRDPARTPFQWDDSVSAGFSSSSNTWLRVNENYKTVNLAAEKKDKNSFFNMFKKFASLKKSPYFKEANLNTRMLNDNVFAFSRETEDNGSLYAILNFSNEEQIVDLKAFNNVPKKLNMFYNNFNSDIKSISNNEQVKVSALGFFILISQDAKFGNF
Assay: Inhibition of family 13 alpha-glucosidase isoform I from honey bee at 1 umol/mL
Conditions: not given

Row | inhibition [%] | SMILES
23 | < 1 | CC(C)(C)C(=O)NCC1OC(CO)C(O)C(O)C1O (configuration not stated)
24 | 10.4 | CC(=O)NCC1OC(CO)C(O)C(O)C1O (configuration not stated)
25 | < 52.3 | O=C(CO)NCC1OC(CO)C(O)C(O)C1O (configuration not stated)
26 | < 1 | O=C(CCO)NCC1OC(CO)C(O)C(O)C1O (configuration not stated)
27 | < 1 | O=C(CCCCCO)NCC1OC(CO)C(O)C(O)C1O (configuration not stated)
28 | 4.6 | O=C(NCC1OC(CO)C(O)C(O)C1O)c1ccccc1 (configuration not stated)
29 | 37.5 | O=C(CCCCO)NCC1OC(CO)C(O)C(O)C1O (configuration not stated)

Biological target: T4, Beta-galactosidase (Homo sapiens) (UniProt P16278)
T4 sequence (whole entry): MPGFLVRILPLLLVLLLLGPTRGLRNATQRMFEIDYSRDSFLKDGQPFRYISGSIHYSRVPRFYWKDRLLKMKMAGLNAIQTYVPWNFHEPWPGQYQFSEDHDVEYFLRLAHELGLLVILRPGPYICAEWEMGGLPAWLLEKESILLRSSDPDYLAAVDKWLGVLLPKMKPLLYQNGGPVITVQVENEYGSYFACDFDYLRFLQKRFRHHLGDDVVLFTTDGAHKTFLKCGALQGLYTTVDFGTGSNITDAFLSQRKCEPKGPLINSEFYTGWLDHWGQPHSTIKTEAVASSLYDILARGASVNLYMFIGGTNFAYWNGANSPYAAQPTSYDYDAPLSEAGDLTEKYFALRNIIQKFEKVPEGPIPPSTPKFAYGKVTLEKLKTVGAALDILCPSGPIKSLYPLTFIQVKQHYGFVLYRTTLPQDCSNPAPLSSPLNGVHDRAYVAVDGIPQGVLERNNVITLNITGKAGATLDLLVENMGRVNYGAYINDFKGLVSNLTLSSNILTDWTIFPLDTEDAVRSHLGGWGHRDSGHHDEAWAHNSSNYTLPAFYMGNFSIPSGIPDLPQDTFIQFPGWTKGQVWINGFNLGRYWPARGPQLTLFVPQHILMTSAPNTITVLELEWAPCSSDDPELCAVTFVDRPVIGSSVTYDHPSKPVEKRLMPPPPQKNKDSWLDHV
Assay: Inhibition of beta-Galactosidase at 5 umol/mL
Conditions: not given

Row | inhibition [%] | SMILES
30 | < 1 | CC(C)(C)C(=O)NCC1OC(CO)C(O)C(O)C1O (configuration not stated)
31 | < 1 | CC(=O)NCC1OC(CO)C(O)C(O)C1O (configuration not stated)
32 | < 1 | O=C(CO)NCC1OC(CO)C(O)C(O)C1O (configuration not stated)
33 | < 1 | O=C(CCO)NCC1OC(CO)C(O)C(O)C1O (configuration not stated)
34 | < 1 | O=C(CCCCCO)NCC1OC(CO)C(O)C(O)C1O (configuration not stated)
35 | < 1 | O=C(NCC1OC(CO)C(O)C(O)C1O)c1ccccc1 (configuration not stated)
36 | < 1 | O=C(CCCCO)NCC1OC(CO)C(O)C(O)C1O (configuration not stated)
37 | < 1 | O=C(CCCO)NCC1OC(CO)C(O)C(O)C1O (configuration not stated)
